# In patent publication US20180194799A1, “BETUIN DERIVATIVES FOR PREVENTING OR TREATING HIV INFECTIONS” (GLAXOSMITHKLINE INTELLECTUAL PROPERTY (NO.2) LIMITED, priority 2015, published 2018):
# Counter-ions that a name gives are not always drawn.
# How the values were obtained:
# HIV = details: cited from earlier work
# NL4-3 wt = assay: MT4 Cell Antiviral Assay, NL4-3 wt; assay type: cell-based, HIV-1; details: Human immunodeficiency virus 1, NL43, 120 h; HIV MT4 Antiviral Cell Assay of Example 17, 5 days incubation
# V370A = assay: MT4 Cell Antiviral Assay, V370A; assay type: cell-based, HIV-1; details: Human immunodeficiency virus 1, MT4, 120 h, read-out: EC50 V370A (nM)
# HIV-1 (strain IIIB) = assay: MT4 Cell Antiviral Assay (general statements and standard); assay type: cell-based; details: Human immunodeficiency virus 1, IIIB; control and standard in every assay, propidium iodide readout, MT4 cells; read-out: expected range of IC50 values
# Description: Antiviral HIV activity and compound-induced cytotoxicity were measured in parallel by means of a propidium iodide based procedure in the human T-cell lymphotropic virus transformed cell line MT4. Aliquots of the test compounds were serially diluted in medium (RPMI 1640, 10% fetal calf serum (FCS), and gentamycin) in 96-well plates (Costar 3598) using a Cetus Pro/Pette. Exponentially growing MT4 cells were harvested and centrifuged at 1000 rpm for 10 min in a Jouan centrifuge (model CR 4 12). Cell pellets were resuspended in fresh medium (RPMI 1640, 20% FCS, 20% IL-2, and gentamycin) to a density of 5×10^5 cells/ml. Cell aliquots were infected by the addition of HIV-1 (strain IIIB) diluted to give a viral multiplicity of infection of 100×TCID50. […]
# For propidium iodide readout, 27 μl of 5% Nonidet-40 was added to each well of the incubation plate. […]
# For MTS readout, 20 μl CellTiter 96 AQ One Solution reagent (Promega #G3582) was added to each well. At 75 minutes following the addition of MTS reagent, absorbance was read at 492 nm using a Tecan Sunrise 96-well plate reader. […]
# For each assay plate, the results (relative fluorescence units, rfU, or OD values) of wells containing uninfected cells or infected cells with no compound were averaged, respectively. […] Percent of cells remaining is determined by the following formula: […]
IC50 (HIV-1 (strain IIIB)),Compound,"HIV viral load reduction (mean) (HIV; patients with trough levels >=20 μg/mL and without baseline Gag polymorphisms at Q369, V370 or T371)","viral load reduction versus patients without Gag polymorphisms (HIV; users with Gag polymorphisms at Q369, V370 or T371)",EC50 (NL4-3 wt),EC50 (V370A)
–,C=C(C)[C@@H]1CC[C@]2(C(=O)O)CC[C@]3(C)[C@H](CC[C@@H]4[C@@]5(C)CC[C@H](OC(=O)CC(C)(C)C(=O)O)C(C)(C)[C@@H]5CC[C@]43C)[C@@H]12 [Bevirimat],1.3 log10/mL,significantly lower load reductions,–,–
–,"CC(C)C1=C2[C@H]3CC[C@@H]4[C@@]5(C)CC=C(c6ccc(C(=O)O)cc6)C(C)(C)C5CC[C@@]4(C)[C@]3(C)CC[C@@]2([C@@H](O)CN(CC2CCC2)C(=O)CN(C)C)CC1=O (stereo in doubt) [Example 6, 4-((3aR,5aR,5bR,7aR,11aS,11bR,13aS)-3a-((R)-2-(N-(cyclobutylmethyl)-2-(dimethylamino)acetamido)-1-hydroxyethyl)-1-isopropyl-5a,5b,8,8,11a-pentamethyl-2-oxo-3,3a,4,5,5a,5b,6,7,7a,8,11,11a,11b,12,13,13a-hexadecahydro-2H-cyclopenta[a]chrysen-9-yl)benzoic acid hydrochloride]",–,–,0.003 µM,8.9 nM
–,"CC(=O)N(CC1CC1)C[C@H](O)[C@@]12CC[C@]3(C)[C@H](CC[C@@H]4[C@@]5(C)CC=C(c6ccc(C(=O)O)cc6)C(C)(C)[C@@H]5CC[C@]43C)C1=C(C(C)C)C(=O)C2 [Example 11, 4-((3aR,5aR,5bR,7aR,11aS,11bR,13aS)-3a-((R)-2-(N-(cyclopropylmethyl)acetamido)-1-hydroxyethyl)-1-isopropyl-5a,5b,8,8,11a-pentamethyl-2-oxo-3,3a,4,5,5a,5b,6,7,7a,8,11,11a,11b,12,13,13a-hexadecahydro-2H-cyclopenta[a]chrysen-9-yl)benzoic acid]",–,–,0.0398 µM,24.5 nM
0.04 to 0.12 µM,Cc1cn([C@H]2C[C@H](N=[N+]=[N-])[C@@H](CO)O2)c(=O)[nH]c1=O [3′-azido-3′-deoxythymidine],–,–,–,–
–,"CC(C)C1=C2[C@H]3CC[C@@H]4[C@@]5(C)CC=C(c6ccc(C(=O)O)cc6)C(C)(C)C5CC[C@@]4(C)[C@]3(C)CC[C@@]2([C@@H](O)CN(CC2CC2)C(=O)CN2CCCC2=O)CC1=O (stereo in doubt) [Example 4, 4-((3aR,5aR,5bR,7aR,11aS,11bR,13aS)-3a-((R)-2-(N-(cyclopropylmethyl)-2-(2-oxopyrrolidin-1-yl)acetamido)-1-hydroxyethyl)-1-isopropyl-5a,5b,8,8,11a-pentamethyl-2-oxo-3,3a,4,5,5a,5b,6,7,7a,8,11,11a,11b,12,13,13a-hexadecahydro-2H-cyclopenta[a]chrysen-9-yl)benzoic acid]",–,–,0.0102 µM,1020 nM
–,"CC(C)C1=C2[C@H]3CC[C@@H]4[C@@]5(C)CC=C(c6ccc(C(=O)O)cc6)C(C)(C)C5CC[C@@]4(C)[C@]3(C)CC[C@@]2([C@@H](O)CN(CC2CCC2)C(=O)CN2CCCC2)CC1=O (stereo in doubt) [Example 5, 4-((3aR,5aR,5bR,7aR,11aS,11bR,13aS)-3a-((R)-2-(N-(cyclobutylmethyl)-2-(pyrrolidin-1-yl)acetamido)-1-hydroxyethyl)-1-isopropyl-5a,5b,8,8,11a-pentamethyl-2-oxo-3,3a,4,5,5a,5b,6,7,7a,8,11,11a,11b,12,13,13a-hexadecahydro-2H-cyclopenta[a]chrysen-9-yl)benzoic acid hydrochloride]",–,–,0.0354 µM,3.8 nM
–,"COCC(=O)N(CC1CC1)C[C@H](O)[C@@]12CC[C@]3(C)[C@H](CC[C@@H]4[C@@]5(C)CC=C(c6ccc(C(=O)O)cc6)C(C)(C)C5CC[C@]43C)C1=C(C(C)C)C(=O)C2 (stereo in doubt) [Example 2, 4-((3aR,5aR,5bR,7aR,11aS,11bR,13aS)-3a-((R)-2-(N-(cyclopropylmethyl)-2-methoxyacetamido)-1-hydroxyethyl)-1-isopropyl-5a,5b,8,8,11a-pentamethyl-2-oxo-3,3a,4,5,5a,5b,6,7,7a,8,11,11a,11b,12,13,13a-hexadecahydro-2H-cyclopenta[a]chrysen-9-yl)benzoic acid]",–,–,0.0155 µM,389 nM
–,"CC(C)C1=C2[C@H]3CC[C@@H]4[C@@]5(C)CC=C(c6ccc(C(=O)O)cc6)C(C)(C)[C@@H]5CC[C@@]4(C)[C@]3(C)CC[C@@]2([C@@H](O)CNCC2CC2)CC1=O [Example 9, 4-((3aR,5aR,5bR,7aR,11aS,11bR,13aS)-3a-((R)-2-((cyclopropylmethyl)amino)-1-hydroxyethyl)-1-isopropyl-5a,5b,8,8,11a-pentamethyl-2-oxo-3,3a,4,5,5a,5b,6,7,7a,8,11,11a,11b,12,13,13a-hexadecahydro-2H-cyclopenta[a]chrysen-9-yl)benzoic acid hydrochloride]",–,–,0.0692 µM,10000 nM
–,"CC(C)C1=C2[C@H]3CC[C@@H]4[C@@]5(C)CC=C(c6ccc(C(=O)O)cc6)C(C)(C)[C@@H]5CC[C@@]4(C)[C@]3(C)CC[C@@]2([C@@H](O)CN(CCN(C)C)CC2CC2)CC1=O [Example 10, 4-((3aR,5aR,5bR,7aR,11aS,11bR,13aS)-3a-((R)-2-((cyclopropylmethyl)(2-(dimethylamino)ethyl)amino)-1-hydroxyethyl)-1-isopropyl-5a,5b,8,8,11a-pentamethyl-2-oxo-3,3a,4,5,5a,5b,6,7,7a,8,11,11a,11b,12,13,13a-hexadecahydro-2H-cyclopenta[a]chrysen-9-yl)benzoic acid hydrochloride]",–,–,0.0078 µM,7.9 nM
–,"CC(C)C1=C2[C@H]3CC[C@@H]4[C@@]5(C)CC=C(c6ccc(C(=O)O)cc6)C(C)(C)C5CC[C@@]4(C)[C@]3(C)CC[C@@]2([C@@H](O)CN(CC2CC2)C(=O)CN2CCCC2)CC1=O (stereo in doubt) [Example 3, 4-((3aR,5aR,5bR,7aR,11aS,11bR,13aS)-3a-((R)-2-(N-(cyclopropylmethyl)-2-(pyrrolidin-1-yl)acetamido)-1-hydroxyethyl)-1-isopropyl-5a,5b,8,8,11a-pentamethyl-2-oxo-3,3a,4,5,5a,5b,6,7,7a,8,11,11a,11b,12,13,13a-hexadecahydro-2H-cyclopenta[a]chrysen-9-yl)benzoic acid hydrochloride]",–,–,0.0028 µM,6.5 nM
–,"COCC(=O)N(CC1CC1)C[C@H](O)[C@@]12CC[C@]3(C)[C@H](CC[C@@H]4[C@@]5(C)CC=C(c6cn(CC(=O)O)nn6)C(C)(C)[C@@H]5CC[C@]43C)C1=C(C(C)C)C(=O)C2 [Example 12, 2-(4-((3aR,5aR,5bR,7aR,11aS,11bR,13aS)-3a-((R)-2-(N-(cyclopropylmethyl)-2-methoxyacetamido)-1-hydroxyethyl)-1-isopropyl-5a,5b,8,8,11a-pentamethyl-2-oxo-3,3a,4,5,5a,5b,6,7,7a,8,11,11a,11b,12,13,13a-hexadecahydro-2H-cyclopenta[a]chrysen-9-yl)-1H-1,2,3-triazol-1-yl)acetic acid hydrochloride]",–,–,20.4 µM,15500 nM
–,"CC(C)C1=C2[C@H]3CC[C@@H]4[C@@]5(C)CC=C(c6ccc(C(=O)O)cc6)C(C)(C)[C@@H]5CC[C@@]4(C)[C@]3(C)CC[C@@]2([C@@H](O)CN(CC2CC2)C(=O)CN(C)C)CC1=O [Example 1, 4-((3aR,5aR,5bR,7aR,11aS,11bR,13aS)-3a-((R)-2-(N-(cyclopropylmethyl)-2-(dimethylamino)acetamido)-1-hydroxyethyl)-1-isopropyl-5a,5b,8,8,11a-pentamethyl-2-oxo-3,3a,4,5,5a,5b,6,7,7a,8,11,11a,11b,12,13,13a-hexadecahydro-2H-cyclopenta[a]chrysen-9-yl)benzoic acid]",–,–,0.0037 µM,17 nM
